Measurements reported in patent US20240197726A1, “NOVEL TETRAHYDROISOQUINOLINE ALKALOID COMPOUND CONTAINING MACROCYCLE” (THE UNIVERSITY OF TOKYO, priority 2021, published 2024).

Columns and labels:
Assay type in all cases: cell-based
[1] = tested on: RXF-631L kidney cancer cells; test: antitumor activity, sulforhodamine B cell growth assay, RXF-631L; settings: RXF-631L kidney cancer cells; read-out: antitumor activity GI50 value: 50% growth inhibitory concentration
Experimental: (§1) The THIQ compound containing a macrocyclic structure of the present invention was administered to various cancer cell lines, and the antitumor activity (Go value) was observed. Specifically, verification was performed according to the literature (Yamori, T.; Matsunaga, A.; Sato, S.; Yamazaki, K.; Komi, A.; Ishizu, K. et al. Cancer Res. 1999, 59, 4042) by the following procedure.
(§2) Cells were plated at an appropriate density in a 96-well plate in RPMI 1640 together with 5% fetal bovine serum, and adhered overnight. The cells were exposed to a drug for 48 hours. Then, according to the sulforhodamine B assay described by Skehan et al (Skehan P., Storeng R., Scudiero D., Monks A., McMahon J., Vistica D., Warren J. T., Bokesch H., Kenney S., Boyd M. R. J Natl. Cancer Inst, 1990, 82, 1107-1112), the cell growth rate was measured. The absorbance of the control well (C) and the test well (T) was measured at 525 nm. In addition, the time at which the drug was added was set as time 0, and the absorbance for the test well (T0) was measured. Using these measured values, the cell growth inhibitory effect (% growth=PG) was calculated by the following formula at each concentration of the drug.
(§3) (T<T0): PG=100×[(T−T0)/T]
(§4) The PG values determined above for each cell line were plotted against the concentration (logarithm) on a semi-logarithmic graph, and summarized for each visceral cancer. Concentrations at which the dose-response curve of each cell line crossed the horizontal line of PG=50%, 0%, or −50% were calculated. These concentrations were defined as Log GI50, Log TGI, and Log LC50. Actually, using two data points of the drug concentration before and after crossing each horizontal line, the drug concentration (logarithmic value) at the intersection of the straight line connecting the two points and the horizontal line for each PG was calculated.

[2] = tested on: MKN1 gastric cancer cells; test: antitumor activity, sulforhodamine B cell growth assay, MKN1; settings: Homo sapiens, MKN-1; MKN1 gastric cancer cells; read-out: antitumor activity GI50 value: 50% growth inhibitory concentration
Summary of the method: (§5)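 Growth inhibition measured by SRB assay following 48 h exposure in RPMI 1640 containing 5% FBS. Values are log concentrations giving 50% growth, zero net growth, or 50% cell kill, interpolated from the two doses flanking each level.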

[3] = tested on: MCF-7 breast cancer cells; test: antitumor activity, sulforhodamine B cell growth assay, MCF-7; settings: Homo sapiens, MCF7; MCF-7 breast cancer cells; read-out: antitumor activity GI50 value: 50% growth inhibitory concentration
Experimental: as §1, §2, §3, §4

OVCAR-3 cancer cells = test: antitumor activity, sulforhodamine B cell growth assay, OVCAR-3; settings: Homo sapiens; OVCAR-3 cervical cancer cells; read-out: antitumor activity GI50 value: 50% growth inhibitory concentration
Experimental: as §1, §2, §3, §4

LOX-IMVI melanoma cells = test: antitumor activity, sulforhodamine B cell growth assay, LOX-IMVI; settings: Homo sapiens; LOX-IMVI melanoma cells; read-out: antitumor activity GI50 value: 50% growth inhibitory concentration
Summary of the method: as §5

[4] = tested on: KM-12 colorectal cancer cells; test: antitumor activity, sulforhodamine B cell growth assay, KM-12; settings: Homo sapiens, KM12; KM-12 colorectal cancer cells; read-out: antitumor activity GI50 value: 50% growth inhibitory concentration
Summary of the method: as §5

SK-OV-3 cancer cells = test: antitumor activity, sulforhodamine B cell growth assay, SK-OV-3; settings: Homo sapiens; SK-OV-3 cervical cancer cells; read-out: antitumor activity GI50 value: 50% growth inhibitory concentration
Summary of the method: as §5

[5] = tested on: MKN45 gastric cancer cells; test: antitumor activity, sulforhodamine B cell growth assay, MKN45; settings: Homo sapiens, MKN-45; MKN45 gastric cancer cells; read-out: antitumor activity GI50 value: 50% growth inhibitory concentration
Summary of the method: as §5

[6] = tested on: HCT-15 colorectal cancer cells; test: antitumor activity, sulforhodamine B cell growth assay, HCT-15; settings: Homo sapiens; HCT-15 colorectal cancer cells; read-out: antitumor activity GI50 value: 50% growth inhibitory concentration
Summary of the method: as §5

[7] = tested on: SNB-75 central nervous system cancer cells; test: antitumor activity, sulforhodamine B cell growth assay, SNB-75; settings: Homo sapiens; SNB-75 central nervous system cancer cells; read-out: antitumor activity GI50 value: 50% growth inhibitory concentration
Summary of the method: as §5

[8] = tested on: SNB-78 central nervous system cancer cells; test: antitumor activity, sulforhodamine B cell growth assay, SNB-78; settings: Homo sapiens; SNB-78 central nervous system cancer cells; read-out: antitumor activity GI50 value: 50% growth inhibitory concentration
Summary of the method: as §5

[9] = tested on: U251 central nervous system cancer cells; test: antitumor activity, sulforhodamine B cell growth assay, U251; settings: Homo sapiens, U-251; U251 central nervous system cancer cells; read-out: antitumor activity GI50 value: 50% growth inhibitory concentration
Summary of the method: as §5

[10] = tested on: St-4 gastric cancer cells; test: antitumor activity, sulforhodamine B cell growth assay, St-4; settings: SI-4 gastric cancer cells; read-out: antitumor activity GI50 value: 50% growth inhibitory concentration
Summary of the method: as §5

[11] = tested on: various cancer cell lines; test: Verification of antitumor activity, whole panel of cancer cell lines; settings: in words, compared with Cyanosafracin B
Experimental: as §1, §2, §3, §4

[12] = tested on: MKN-B gastric cancer cells; test: antitumor activity, sulforhodamine B cell growth assay, MKN-B; settings: MKN-B gastric cancer cells; read-out: antitumor activity GI50 value: 50% growth inhibitory concentration
Summary of the method: as §5

[13] = tested on: MKN-A gastric cancer cells; test: antitumor activity, sulforhodamine B cell growth assay, MKN-A; settings: MKN-A gastric cancer cells; read-out: antitumor activity GI50 value: 50% growth inhibitory concentration
Summary of the method: as §5

OVCAR-4 cancer cells = test: antitumor activity, sulforhodamine B cell growth assay, OVCAR-4; settings: Homo sapiens; OVCAR-4 cervical cancer cells; read-out: antitumor activity GI50 value: 50% growth inhibitory concentration
Experimental: as §1, §2, §3, §4

[14] = tested on: HT-29 colorectal cancer cells; test: antitumor activity, sulforhodamine B cell growth assay, HT-29; settings: Homo sapiens; HT-29 colorectal cancer cells; read-out: antitumor activity GI50 value: 50% growth inhibitory concentration
Summary of the method: as §5

OVCAR-8 cancer cells = test: antitumor activity, sulforhodamine B cell growth assay, OVCAR-8; settings: Homo sapiens; OVCAR-8 cervical cancer cells; read-out: antitumor activity GI50 value: 50% growth inhibitory concentration
Experimental: as §1, §2, §3, §4

[15] = tested on: HBC-5 breast cancer cells; test: antitumor activity, sulforhodamine B cell growth assay, HBC-5; settings: HBC5; HBC-5 breast cancer cells; read-out: antitumor activity GI50 value: 50% growth inhibitory concentration
Summary of the method: as §5

DMS273 lung cancer cells = test: antitumor activity, sulforhodamine B cell growth assay, DMS273; settings: Homo sapiens, DMS-273; DMS273 lung cancer cells; read-out: antitumor activity GI50 value: 50% growth inhibitory concentration
Summary of the method: as §5

[16] = tested on: NCI-H226 lung cancer cells; test: antitumor activity, sulforhodamine B cell growth assay, NCI-H226; settings: Homo sapiens, NCI-H226; NCl-H226 lung cancer cells; read-out: antitumor activity GI50 value: 50% growth inhibitory concentration
Summary of the method: as §5

In the case of `C#CCN1C/C=C/COc2c(C)c3c(c4c2C[C@H]2[C@H]5c6c(cc(C)c(OC)c6O)C[C@@H]([C@H](C#N)N2C4CNC(=O)[C@@H]1C)N5C)OCO3` [Compound 44], the GI50 [1] is reported as < 10 nM, the GI50 [2] is reported as < 10 nM and the GI50 [3] is reported as < 10 nM. The GI50 (OVCAR-3 cancer cells) was < 10 nM, the GI50 (LOX-IMVI melanoma cells) was < 10 nM and the GI50 [4] was < 10 nM. The GI50 (SK-OV-3 cancer cells) was < 10 nM, the GI50 [5] was < 10 nM and the GI50 [6] was < 10 nM. The GI50 [7] was < 10 nM, the GI50 [8] was < 10 nM and the GI50 [9] was < 10 nM. For the same compound, the GI50 [10] was < 10 nM, the antitumor activity [11] was “better antitumor activity than Cyanosafracin B” and the GI50 [12] was < 10 nM. For the same compound, the GI50 [13] was < 10 nM, the GI50 (OVCAR-4 cancer cells) was < 10 nM and the GI50 [14] was < 10 nM. For the same compound, the GI50 (OVCAR-8 cancer cells) was < 10 nM, the GI50 [15] was < 10 nM and the GI50 (DMS273 lung cancer cells) was < 10 nM. The GI50 [16] was < 10 nM.

For `C#CCN1C(=O)[C@H]2[C@@H]3C=C(COc4c(C)c5c(c6c4C[C@H]4[C@H]7c8c(cc(C)c(OC)c8O)C[C@@H]([C@H](C#N)N4C6CNC(=O)[C@H](C)NC(=O)OC3)N7C)OCO5)C[C@H]2C1=O` [Compound 47], the GI50 [1] was 2100 nM, the GI50 [2] was 290 nM and the GI50 [3] was 63 nM. It also gave a GI50 (OVCAR-3 cancer cells) of 330 nM, a GI50 (LOX-IMVI melanoma cells) of 160 nM and a GI50 [4] of 450 nM. For the same compound, the GI50 (SK-OV-3 cancer cells) was 3900 nM, the GI50 [5] was 470 nM and the GI50 [6] was 2200 nM. It also gave a GI50 [7] of 330 nM, a GI50 [8] of 260 nM and a GI50 [9] of 350 nM. For the same compound, the GI50 [10] was 2200 nM, the antitumor activity [11] was “better antitumor activity than Cyanosafracin B” and the GI50 [12] was 730 nM. It also gave a GI50 [13] of 1400 nM, a GI50 (OVCAR-4 cancer cells) of 3500 nM and a GI50 [14] of 490 nM. It also gave a GI50 (OVCAR-8 cancer cells) of 1100 nM, a GI50 [15] of 300 nM and a GI50 (DMS273 lung cancer cells) of 450 nM. The GI50 [16] was 2300 nM.
